Experimental data from patent US5719291A, “Cyclohexane derivatives” (Hoffmann-La Roche Inc., priority 1991, dated 1998).
In brackets after ≈: the same amount, converted by molar mass. Structures can show the parent of a compound that is named as a salt.

Columns and labels:
Assay in all cases: In vitro antifungal activity, MIC (Method A)
Assay type in all cases: cell-based
Aspergillus fumigatus = settings: Aspergillus fumigatus, 72 h, 3 days, 27° C.
Experimental: (§1) The in vitro antifungal activities of representative compounds of the present invention were measured by determining the minimal inhibitory concentration (MIC), which is the concentration of an antifungal at which no fungal growth can be observed.
(§2) The MICs were determined by the microbroth dilution procedure according to NCCLS with the following minor modifications (Galgiani et al., Antimicrob. Agents Chemother., 33, 731 (1989). The medium was solidified with 0.2% low melting point agarose and buffered to pH 7.0 with 0.25%: K2 HPO4 in Yeast Nitrogen Base (Difco Lab.). Inoculum size was 1×10^5 cells/ml, and incubation was carried out for 3 days at 27° C. The MICs ([…]) are shown in Table 1. The reference compound is compound (IA) in U.S. Pat. No. 4,952,604. The compounds used are identified by reference to the Examples in which they were prepared.
(§3) The in vitro antifungal activities of the representative compounds of the present invention shown in Table 1 and Table 2 were measured by determining the minimal inhibitory concentrations (MIC: Method A) or 80% growth inhibition concentration (IC80 : Method B) respectively. MIC is defined as the concentration of an antifungal at which growth of fungi is not observed and IC80 is the concentration where cell turbidity measured at OD630 is reduced by 80%.
(§4) Antifungal activities were determined by either method A or B (see below) using microtest plates according NCCLS with minor modifications (Galgiani et at., Antimicrob. Agents Chemother. 33, 731 (1989)).
(§5) (Method A) The medium was solidified with 0.2% low melting point agarose and buffered to pH 7.0 with 0.25% K2 HPO4 in Yeast Nitrogen Base (Difco Lab.). Inoculum size was 1×10^5 cells/ml, and incubation was carried out for 3 days at 27° C. The reference compound is compound (IA) in U.S. Pat. No. 4,952,604.

Cryptococcus neoformans = settings: Cryptococcus neoformans, 72 h, 3 days, 27° C.
Experimental: as §1, §2, §3, §4, §5

Candida albicans = settings: Candida albicans, 72 h, 3 days, 27° C.
Experimental: as §1, §2, §3, §4, §5

[1] = pH 7, Aspergillus fumigatus CF1003, 1×10^5 cells/ml
[2] = pH 7, Aspergillus fumigatus CF1004, 1×10^5 cells/ml
[3] = pH 7, Aspergillus fumigatus CF1023, 1×10^5 cells/ml
[4] = pH 7, Cryptococcus neoformans CY1057, 1×10^5 cells/ml
[5] = pH 7, Cryptococcus neoformans CY1059, 1×10^5 cells/ml
[6] = pH 7, Cryptococcus neoformans CY1061, 1×10^5 cells/ml
[7] = pH 7, Candida albicans CY1002, 1×10^5 cells/ml
[8] = pH 7, Candida albicans CY1005, 1×10^5 cells/ml
[9] = pH 7, Candida albicans CY3003, 1×10^5 cells/ml

SMILES | MIC (Aspergillus fumigatus; [1]) [µg/mL] | MIC (Aspergillus fumigatus; [2]) [µg/mL] | MIC (Aspergillus fumigatus; [3]) [µg/mL] | MIC (Cryptococcus neoformans; [4]) [µg/mL] | MIC (Cryptococcus neoformans; [5]) [µg/mL] | MIC (Cryptococcus neoformans; [6]) [µg/mL] | MIC (Candida albicans; [7]) [µg/mL] | MIC (Candida albicans; [8]) [µg/mL] | MIC (Candida albicans; [9]) [µg/mL]
CCCCCCC/C=C\[C@@H]1OC[C@H](C)[C@H](OCC)[C@@H]1OC(=O)CN.O=C(O)C(F)(F)F [Example 27, (2S,3R,4S,5S)-4-ethoxy-5-methyl-2-[(Z)-1-nonenyl]tetrahydro-2H-pyran-3-yl glycinate trifluoroacetic acid salt] | 50 | 100 | 50 | 6.25 | 12.5 | 12.5 | 100 | 100 | 50
CCCCCCC/C=C/[C@@H]1OC[C@@H](OCc2ccccc2)[C@H](OC)[C@@H]1OC(=O)CN.O=C(O)C(F)(F)F [Example 31, (2S,3R,4S,5R)-5-benzyloxy-4-methoxy-2-[(E)-1-nonenyl]tetra-hydro-2H-pyran-3-yl glycinate trifluoroacetic acid salt] | 100 | 200 | 50 | 6.25 | 12.5 | 12.5 | 50 | 50 | 25
CCCCCCCCC[C@@H]1OC[C@H](C)[C@H](OC)[C@@H]1OC(=O)CN.O=CO [Example 5, (2S,3R,4S,5S)-4-methoxy-5-methyl-2-nonyl-tetrahydro-2H-pyran-3-yl glycinate formic acid salt] | 50 | 100 | 50 | 12.5 | 12.5 | 25 | 50 | 25 | 25
CCCCCCC/C=C\[C@@H]1OC[C@H](C)[C@H](OCCC)[C@H]1OC(=O)CN [Example 22, (2S,3R,4S,5-S)-5-methyl-2-[(Z)-1-nonenyl]-4-prpoxy-tetrahydro-2H-pyran-3-ylglycinate trifluoroacetic acid salt] | 50 | 50 | 50 | 6.25 | 12.5 | 12.5 | 50 | 50 | 50
CCCCC/C=C/C=C/[C@@H]1OC[C@H](C)[C@H](OC)[C@H]1OC(=O)CN.O=CO [Example 47, (2S,3R,4S,5S)-4-methoxy-5-methyl-2-[(1E,3E)-1,3-nonadienyl]tetrahydro-2H-pyran-3-yl glycinate formic acid salt] | 25 | 25 | 25 | 12.5 | 12.5 | 25 | 100 | 100 | 100

Stronger by MIC (Aspergillus fumigatus; [1]), values ahead:

MIC (Aspergillus fumigatus; [1]) [µg/mL] | MIC (Aspergillus fumigatus; [2]) [µg/mL] | MIC (Aspergillus fumigatus; [3]) [µg/mL] | MIC (Cryptococcus neoformans; [4]) [µg/mL] | MIC (Cryptococcus neoformans; [5]) [µg/mL] | MIC (Cryptococcus neoformans; [6]) [µg/mL] | MIC (Candida albicans; [7]) [µg/mL] | MIC (Candida albicans; [8]) [µg/mL] | MIC (Candida albicans; [9]) [µg/mL] | SMILES
12.5 | 12.5 | 6.25 | 12.5 | 12.5 | 25 | 100 | 100 | 100 | CCCCCCCC/C=C/[C@@H]1OC[C@H](C)[C@H](OC)[C@H]1OC(=O)CN.O=C(O)C(F)(F)F [Example 6, (2S,3R,4S,5S)-2-[(E)-1-decenyl]-4-methoxy-5-methyltetrahydro-2H-pyran-3-yl glycinate trifluoroacetic acid salt]
6.25 (≈ 17.8 µM) | 12.2 (≈ 34.9 µM) | 6.25 (≈ 17.8 µM) | 0.39 (≈ 1.11 µM) | 0.78 (≈ 2.23 µM) | 3.13 (≈ 8.93 µM) | 25 (≈ 71.3 µM) | 12.5 (≈ 35.7 µM) | 12.5 (≈ 35.7 µM) | CCCCCCCCO[C@@H]1CCC(C)(C)[C@H](OC)[C@@H]1Cn1ccnc1 [Example 68, 1-[[(1R,2R,6R)-2-methoxy-3,3-dimethyl-6-octyloxy-cyclohexyl]methyl]-1H-imidazole]
3.13 (≈ 10.3 µM) | 12.5 (≈ 41.1 µM) | 12.5 (≈ 41.1 µM) | 3.13 (≈ 10.3 µM) | 6.25 (≈ 20.5 µM) | 3.13 (≈ 10.3 µM) | 50 (≈ 164 µM) | 25 (≈ 82.1 µM) | 25 (≈ 82.1 µM) | CCCCCCCCC[C@@H]1OC[C@H](C)C=C1Cn1ccnc1 [Example 59, 1-[[(2S,5R)-5,6-dihydro-5-methyl-2-nonyl-2H-pyran-3-yl]methyl]-1H-imidazole]
